Experimental data: PubChem BioAssay AID256 (DTP/NCI, 2004)
“And” between values parts separate entries of the source, which are not always exact repeats. Identical values can stand only once. Inconclusive results and toxic doses are left out.

System: CD2F1 mice, L1210 leukemia ip, survival T/C
Test: NCI In Vivo Anticancer Drug Screen. Data for tumor model L1210 Leukemia (intraperitoneal) in CD2F1 (CDF1) mice
Conditions: higher = longer survival
How it was run: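 Antitumor effect is scored in animals hosting a serially transplanted tumor. Values compare compound-dosed animals against vehicle-only controls as a simple quotient.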

[1] = endpoint: mean survival time, dose: 100.0 mg/kg/injection, schedule: Q04DX003 (ip), vehicle: saline with Tween-80
[2] = endpoint: mean survival time, dose: 200.0 mg/kg/injection, schedule: Q04DX003 (ip), vehicle: saline with Tween-80
[3] = endpoint: mean survival time, dose: 400.0 mg/kg/injection, schedule: Q04DX003 (ip), vehicle: saline with Tween-80

With `OC(C1CO1)C(O)C1CO1` (centres undefined) the T/C (endpoint: mean survival time, dose: 0.13 mg/kg/injection, schedule: Q03HX008 (ip), vehicle: saline) was 101 % of control, the T/C (endpoint: mean survival time, dose: 0.25 mg/kg/injection, schedule: Q03HX008 (ip), vehicle: saline) was 105 % of control and the T/C (endpoint: mean survival time, dose: 0.25 mg/kg/injection, schedule: Q03HX016 (ip), vehicle: saline) was 104 % of control. For the same compound, the T/C (endpoint: mean survival time, dose: 0.25 mg/kg/injection, schedule: Q03HX024 (ip), vehicle: saline) was 104 % of control, the T/C (endpoint: mean survival time, dose: 0.5 mg/kg/injection, schedule: Q01DX009 (ip), vehicle: saline) was 117 % of control and 119 % of control and 121 % of control and the T/C (endpoint: mean survival time, dose: 0.5 mg/kg/injection, schedule: Q01DX009 (sc), vehicle: saline) was 104 % of control. For the same compound, the T/C (endpoint: mean survival time, dose: 0.5 mg/kg/injection, schedule: Q03HX008 (ip), vehicle: saline) was 112 % of control, the T/C (endpoint: mean survival time, dose: 0.5 mg/kg/injection, schedule: Q03HX016 (ip), vehicle: saline) was 115 % of control and the T/C (endpoint: mean survival time, dose: 1.0 mg/kg/injection, schedule: Q01DX001 (ip), vehicle: saline) was 98 % of control and 108 % of control. The T/C (endpoint: mean survival time, dose: 1.0 mg/kg/injection, schedule: Q01DX001 (sc), vehicle: saline) was 106 % of control, the T/C (endpoint: mean survival time, dose: 1.0 mg/kg/injection, schedule: Q01DX009 (sc), vehicle: saline) was 114 % of control and the T/C (endpoint: mean survival time, dose: 1.0 mg/kg/injection, schedule: Q03HX024 (ip), vehicle: saline) was 177 % of control. The T/C (endpoint: mean survival time, dose: 1.0 mg/kg/injection, schedule: Q04DX003 (ip), vehicle: saline) was 107 % of control, the T/C (endpoint: mean survival time, dose: 1.4 mg/kg/injection, schedule: Q04DX003 (ip), vehicle: saline) was 96 % of control and the T/C (endpoint: mean survival time, dose: 2.0 mg/kg/injection, schedule: Q01DX001 (ip), vehicle: saline) was 116 % of control and 111 % of control. For the same compound, the T/C (endpoint: mean survival time, dose: 2.0 mg/kg/injection, schedule: Q01DX001 (sc), vehicle: saline) was 111 % of control, the T/C (endpoint: mean survival time, dose: 2.0 mg/kg/injection, schedule: Q03HX008 (ip), vehicle: saline) was 171 % of control and the T/C (endpoint: mean survival time, dose: 2.0 mg/kg/injection, schedule: Q03HX016 (ip), vehicle: saline) was 201 % of control. For the same compound, the T/C (endpoint: mean survival time, dose: 2.0 mg/kg/injection, schedule: Q03HX024 (ip), vehicle: saline) was 109 % of control, the T/C (endpoint: mean survival time, dose: 2.0 mg/kg/injection, schedule: Q04DX003 (ip), vehicle: saline) was 123 % of control and 104 % of control and 112 % of control and the T/C (endpoint: mean survival time, dose: 2.0 mg/kg/injection, schedule: Q08DX002 (ip), vehicle: saline) was 118 % of control. For the same compound, the T/C (endpoint: mean survival time, dose: 3.0 mg/kg/injection, schedule: Q01DX009 (ip), vehicle: saline) was 192 % of control, the T/C (endpoint: mean survival time, dose: 3.0 mg/kg/injection, schedule: Q04DX003 (ip), vehicle: saline) was 119 % of control and the T/C (endpoint: mean survival time, dose: 4.0 mg/kg/injection, schedule: Q01DX001 (ip), vehicle: saline) was 115 % of control and 121 % of control. For the same compound, the T/C (endpoint: mean survival time, dose: 4.0 mg/kg/injection, schedule: Q01DX001 (sc), vehicle: saline) was 112 % of control, the T/C (endpoint: mean survival time, dose: 4.0 mg/kg/injection, schedule: Q01DX009 (ip), vehicle: saline) was 204 % of control and 247 % of control and the T/C (endpoint: mean survival time, dose: 4.0 mg/kg/injection, schedule: Q01DX009 (sc), vehicle: saline) was 163 % of control. The T/C (endpoint: mean survival time, dose: 4.6 mg/kg/injection, schedule: Q01DX009 (ip), vehicle: saline) was 182 % of control, the T/C (endpoint: mean survival time, dose: 4.6 mg/kg/injection, schedule: Q04DX003 (ip), vehicle: saline) was 162 % of control and the T/C (endpoint: mean survival time, dose: 5.0 mg/kg/injection, schedule: Q01DX001 (ip), vehicle: saline) was 123 % of control. The T/C (endpoint: mean survival time, dose: 6.7 mg/kg/injection, schedule: Q04DX003 (ip), vehicle: saline) was 171 % of control, the T/C (endpoint: mean survival time, dose: 7.0 mg/kg/injection, schedule: Q01DX001 (ip), vehicle: saline) was 156 % of control and the T/C (endpoint: mean survival time, dose: 7.0 mg/kg/injection, schedule: Q01DX009 (ip), vehicle: saline) was 106 % of control. For the same compound, the T/C (endpoint: mean survival time, dose: 7.0 mg/kg/injection, schedule: Q04DX003 (ip), vehicle: saline) was 190 % of control, the T/C (endpoint: mean survival time, dose: 8.0 mg/kg/injection, schedule: Q01DX001 (ip), vehicle: saline) was 155 % of control and 156 % of control and the T/C (endpoint: mean survival time, dose: 8.0 mg/kg/injection, schedule: Q01DX009 (ip), vehicle: saline) was 96 % of control and 97 % of control. The T/C (endpoint: mean survival time, dose: 8.0 mg/kg/injection, schedule: Q01DX009 (sc), vehicle: saline) was 105 % of control, the T/C (endpoint: mean survival time, dose: 8.0 mg/kg/injection, schedule: Q04DX003 (ip), vehicle: saline) was 189 % of control and 446 % of control and the T/C (endpoint: mean survival time, dose: 8.0 mg/kg/injection, schedule: Q08DX002 (ip), vehicle: saline) was 184 % of control. The T/C (endpoint: mean survival time, dose: 10.0 mg/kg/injection, schedule: Q04DX003 (ip), vehicle: saline) was 288 % of control, the T/C (endpoint: mean survival time, dose: 10.6 mg/kg/injection, schedule: Q01DX009 (ip), vehicle: saline) was 100 % of control and the T/C (endpoint: mean survival time, dose: 10.6 mg/kg/injection, schedule: Q04DX003 (ip), vehicle: saline) was 243 % of control. The T/C (endpoint: mean survival time, dose: 16.0 mg/kg/injection, schedule: Q01DX001 (ip), vehicle: saline) was 175 % of control, the T/C (endpoint: mean survival time, dose: 16.0 mg/kg/injection, schedule: Q01DX001 (sc), vehicle: saline) was 174 % of control and the T/C (endpoint: mean survival time, dose: 16.0 mg/kg/injection, schedule: Q04DX003 (ip), vehicle: saline) was 116 % of control. The T/C (endpoint: mean survival time, dose: 16.0 mg/kg/injection, schedule: Q08DX002 (ip), vehicle: saline) was 162 % of control, the T/C (endpoint: mean survival time, dose: 20.0 mg/kg/injection, schedule: Q01DX001 (ip), vehicle: saline) was 92 % of control and the T/C (endpoint: median survival time, dose: 2.0 mg/kg/injection, schedule: Q01DX001 (ip), vehicle: saline) was 119 % of control and 104 % of control. The T/C (endpoint: median survival time, dose: 4.0 mg/kg/injection, schedule: Q01DX001 (ip), vehicle: saline) was 117 % of control, the T/C (endpoint: median survival time, dose: 4.0 mg/kg/injection, schedule: Q03DX003 (ip), vehicle: saline) was 175 % of control and 222 % of control and the T/C (endpoint: median survival time, dose: 6.0 mg/kg/injection, schedule: Q03DX003 (ip), vehicle: saline) was 189 % of control and 266 % of control. The T/C (endpoint: median survival time, dose: 8.0 mg/kg/injection, schedule: Q03DX003 (ip), vehicle: saline) was 206 % of control and 253 % of control, the T/C (endpoint: median survival time, dose: 12.0 mg/kg/injection, schedule: Q03DX003 (ip), vehicle: saline) was 229 % of control and the T/C (endpoint: median survival time, dose: 16.0 mg/kg/injection, schedule: Q01DX001 (ip), vehicle: saline) was 168 % of control and 182 % of control. For the same compound, the T/C (endpoint: median survival time, dose: 32.0 mg/kg/injection, schedule: Q01DX001 (ip), vehicle: saline) was 113 % of control and 104 % of control and the T/C (endpoint: median survival time, dose: 64.0 mg/kg/injection, schedule: Q01DX001 (ip), vehicle: saline) was 117 % of control and 105 % of control.

With `COc1ccc2c(c1)CCn1c(C)c(COC(=O)NC(C)C)c(COC(=O)NC(C)C)c1-2` the T/C (endpoint: median survival time, dose: 3.12 mg/kg/injection, schedule: Q01DX009 (ip), vehicle: distilled water + Tween-80) was 120 % of control, the T/C (endpoint: median survival time, dose: 3.13 mg/kg/injection, schedule: Q01DX009 (ip), vehicle: distilled water + Tween-80) was 123 % of control and the T/C (endpoint: median survival time, dose: 6.25 mg/kg/injection, schedule: Q01DX009 (ip), vehicle: distilled water + Tween-80) was 114 % of control. The T/C (endpoint: median survival time, dose: 25.0 mg/kg/injection, schedule: Q01DX009 (ip), vehicle: distilled water + Tween-80) was 152 % of control and 157 % of control and the T/C (endpoint: median survival time, dose: 50.0 mg/kg/injection, schedule: Q01DX009 (ip), vehicle: distilled water + Tween-80) was 114 % of control.

With `COC(=O)NC1=Nc2ccccc2-c2ccccc2N1` the T/C [1] was 101 % of control, the T/C [2] was 96 % of control and the T/C [3] was 96 % of control.

With `OC(COc1ccccc1)CN1CCCCC1` (centres undefined) the T/C (endpoint: mean survival time, dose: 100.0 mg/kg/injection, schedule: Q01DX009 (ip), vehicle: saline with Tween-80) was 100 % of control, the T/C [1] was 101 % of control and the T/C (endpoint: mean survival time, dose: 200.0 mg/kg/injection, schedule: Q01DX009 (ip), vehicle: saline with Tween-80) was 100 % of control. The T/C [2] was 98 % of control, the T/C (endpoint: mean survival time, dose: 400.0 mg/kg/injection, schedule: Q01DX009 (ip), vehicle: saline with Tween-80) was 102 % of control and the T/C [3] was 98 % of control.

With `CC1=C(C(N)=O)C(c2ccccc2)NC(=S)N1` (centres undefined) the T/C (endpoint: median survival time, dose: 25.0 mg/kg/injection, schedule: Q01DX009 (ip), vehicle: Klucel (hydroxypropylcellulose) (HPC)) was 101 % of control, the T/C (endpoint: median survival time, dose: 50.0 mg/kg/injection, schedule: Q01DX009 (ip), vehicle: Klucel (hydroxypropylcellulose) (HPC)) was 105 % of control and the T/C (endpoint: median survival time, dose: 100.0 mg/kg/injection, schedule: Q01DX009 (ip), vehicle: Klucel (hydroxypropylcellulose) (HPC)) was 102 % of control. For the same compound, the T/C (endpoint: median survival time, dose: 200.0 mg/kg/injection, schedule: Q01DX009 (ip), vehicle: Klucel (hydroxypropylcellulose) (HPC)) was 112 % of control and the T/C (endpoint: median survival time, dose: 400.0 mg/kg/injection, schedule: Q01DX009 (ip), vehicle: Klucel (hydroxypropylcellulose) (HPC)) was 103 % of control.

With `COc1ccc(S(=O)(=O)NCCN(C)C)cc1NC(C)=O` the T/C (endpoint: mean survival time, dose: 100.0 mg/kg/injection, schedule: Q01DX001 (ip), vehicle: saline) was 90 % of control, the T/C (endpoint: mean survival time, dose: 200.0 mg/kg/injection, schedule: Q01DX001 (ip), vehicle: saline) was 93 % of control and the T/C (endpoint: mean survival time, dose: 400.0 mg/kg/injection, schedule: Q01DX001 (ip), vehicle: saline) was 100 % of control.

In the case of `O=c1cc(O)c(Cl)nn1C1OC(CO)C(O)C1O` (centres undefined), the T/C (endpoint: mean survival time, dose: 12.5 mg/kg/injection, schedule: Q01DX009 (ip), vehicle: water) was 103 % of control, the T/C (endpoint: mean survival time, dose: 25.0 mg/kg/injection, schedule: Q01DX009 (ip), vehicle: water) was 97 % of control and the T/C (endpoint: mean survival time, dose: 50.0 mg/kg/injection, schedule: Q01DX009 (ip), vehicle: water) was 100 % of control. For the same compound, the T/C (endpoint: mean survival time, dose: 100.0 mg/kg/injection, schedule: Q01DX009 (ip), vehicle: water) was 100 % of control, the T/C (endpoint: mean survival time, dose: 200.0 mg/kg/injection, schedule: Q01DX009 (ip), vehicle: water) was 95 % of control and the T/C (endpoint: mean survival time, dose: 400.0 mg/kg/injection, schedule: Q01DX009 (ip), vehicle: water) was 91 % of control.
